Laboratory results taken from PMC4481774, “Discovery of a non-cationic cell penetrating peptide derived from membrane-interacting human proteins and its potential as a protein delivery carrier” (Scientific Reports, 2015).
Like-named read-outs stand apart in the source and are kept apart here. Where no end group is shown, it is not given here. The star is where a group is joined. FITC = O=C1OC2(c3ccc(O)cc3Oc3cc(O)ccc32)c2ccc(NC(=S)*)cc21

Tests used:
[1] = Liposome experiment (interaction of FITC-labeled AA3H with phospholipid liposomes); type: binding; conditions: liposomes in HBS pH 7.5, 4 h at room temperature, flow cytometric analysis (Supplementary Fig. S3)
Protocol: Liposome experiment. Phospholipids dissolved in chloroform (L-alpha-phosphatidylcholine: PC, L-alpha-phosphatidylserine: PS, and L-alpha-phosphatidylethanolamine: PE) were purchased 1 from Avanti Polar Lipids. Liposomes were prepared by following a reported procedure . After preparation of phospholipid mixtures with appropriate molar ratios (PC/PS: 8/2 and PC/PE/PS: 4/4/2), the mixtures were dried by removing the solvent. The residues were dissolved in HBS (20 mM HEPES/NaOH, pH 7.5, 100 mM NaCl, 0.02% (w/v) sodium azide) and vortexed to completely resuspend phospholipids. Then, the suspension was sonicated until to have clear solution. The prepared vesicles was incubated with AA3H-CPP (FITC labelled) for 4 h at room temperature and the mixture was centrifuged at 16,000×g for 10 min at 4°C before flow cytometric analysis.
Supplementary Fig. S3. (A) Sizes of liposomes determined by dynamic light scattering. (B) Flow cytometric analysis on the interaction between FITC-labeled AA3H and liposomes. […]

HeLa cells [2] = experiment: Intracellular uptake of CPPs in the presence or absence of serum, flow cytometry; type: cell-based, Human; conditions: peptide 1 μM, with or without 10% mouse serum, 4 h
Protocol: Samples were prepared as described for cellular uptake above.

HeLa cells [3] = experiment: Cellular uptake of FITC-labeled CPPs by flow cytometry; type: cell-based, Human; conditions: for order of potency in intracellular translocation (dose-dependent uptake): 0, 0.5, 1, 2.5, 5 and 10 μM; for order of potency in intracellular translocation (dose-dependent uptake) / cellular uptake efficiency: average of three independent experiments; for cellular uptake efficiency: 1 μM peptide, flow cytometry MFI, serum-containing DMEM, 37 °C
Protocol: For assessing the uptake of CPP candidates by HeLa cells, cells were seeded onto 6-well plates (1.0 × 10^6 cells/well). […] Cells were washed two times with phosphate-buffered saline (PBS), incubated in trypsin-EDTA solution (0.01% trypsin) at 37 °C for 10 min to digest extracellular proteins, washed two times with ice-cold PBS, and finally resuspended in 500 μL of ice-cold PBS for flow cytometry assays. For endocytosis inhibitor treatments, cells were pre-incubated with various inhibitors (50 μg heparin, 50 μM CPZ, 100 μM CQ, 1 mM MβCD, 30 μg dynasore, or 50 μM EIPA) in serum-containing medium for 30 min before AA3H (1 μM) was added. The sample for flow cytometry analysis was prepared as described above. For the analysis of peptide internalization, a GUAVA flow cytometry system (Merck Millipore, Darmstadt, Germany) with the FL-1 channel for measuring fluorescence in GuavaSoft 2.6 was used according to the manufacturer’s instructions.

HeLa cells [4] = experiment: Cellular uptake mechanism of AA3H (heparin, low temperature, endocytosis inhibitors), flow cytometry; type: cell-based, Human
Protocol: For assessing the uptake of CPP candidates by HeLa cells, cells were seeded onto 6-well plates (1.0 × 10^6 cells/well). After 24 h, cells were washed two times with serum-free DMEM and incubated with CPPs at indicated concentrations (0.1, 1, 10 μM) in serum-containing DMEM at 37 °C. Cells were washed two times with phosphate-buffered saline (PBS), incubated in trypsin-EDTA solution (0.01% trypsin) at 37 °C for 10 min to digest extracellular proteins, washed two times with ice-cold PBS, and finally resuspended in 500 μL of ice-cold PBS for flow cytometry assays. For endocytosis inhibitor treatments, cells were pre-incubated with various inhibitors (50 μg heparin, 50 μM CPZ, 100 μM CQ, 1 mM MβCD, 30 μg dynasore, or 50 μM EIPA) in serum-containing medium for 30 min before AA3H (1 μM) was added. The sample for flow cytometry analysis was prepared as described above. For the analysis of peptide internalization, a GUAVA flow cytometry system (Merck Millipore, Darmstadt, Germany) with the FL-1 channel for measuring fluorescence in GuavaSoft 2.6 was used according to the manufacturer’s instructions.

HeLa cells [5] = experiment: Subcellular localization by confocal fluorescence microscopy; type: cell-based, Human; conditions: AA3H 1 μM, 4 h, organelle-specific staining
Protocol: To visualize the cellular uptake of a peptide using confocal fluorescence microscopy, HeLa cells were seeded onto confocal bottom dish 35-mm plates (SPL, Gyeonggi-do, Korea) and incubated with AA3H (1 μM) for 4 h. Lysosomes and nuclei of AA3H-treated cells were stained with LysoTracker (Life Technologies, Carlsbad, CA, USA; 1 μg/mL for 30 min) and Hoechst (1 μg/mL for 5 min), respectively. For staining ER and Golgi, CellLight Reagents BacMam 2.0 (Life Technologies, Carlsbad, CA, USA) were used. Cells were cultured in confocal dishes for 24 h, transfected with red fluorescence protein (RFP) for 24 h, and treated with AA3H (1 μM) for 4 h. After washing two times with PBS, the intracellular fluorescence of HeLa cells was imaged using confocal laser scanning microscopy (LSM 700, Carl Zeiss, Jena, Germany).

cells [6] = experiment: Uptake kinetics (half-time of internalization); type: cell-based; conditions: uptake kinetics of AA3H
cells [7] = conditions: uptake kinetics of TAT; cited from earlier work
Raw 264.7 cells = experiment: Immunogenicity assay (IL-6 release, ELISA); type: cell-based, Murine; conditions: 24 h; AA3H 10 μM or LPS 10 μg/mL; mouse IL-6 ELISA; average of three; non-treated control 20 pg/mL
Protocol: Raw 264.7 cells were seeded into 24-well plates and cultured for 24 h. Cells were grown to 80% confluence and treated with lipopolysaccharides (LPS, 10 μg/mL) as a positive control. After incubation of AA3H peptide (10 μM) with cells for 24 h, supernatants were transferred to 1.5 mL tubes and centrifuged at 10,000 × g for 10 min at 4 °C. For the detection of interleukin-6 (IL-6) a mouse IL-6 ELISA kit (Thermo Scientific, Waltham, MA, USA) was used. Results from triplicate experiments were analyzed by Prism software (GraphPad, La Jolla, CA, USA). Data are presented as mean ± standard deviation (SD).

## {FITC}-MASIWVGHRG [AA3H]
[1]
  binding to phospholipids known to interact with annexin III: found to also bind AA3H
HeLa cells [2]
  delivery efficiency in the presence of serum: not considerably affected
HeLa cells [3]; HeLa cells, flow cytometry
  order of potency in intracellular translocation (dose-dependent uptake): AA3H > AA5H > AA8H > AA13H > AA4H
HeLa cells [3]; HeLa cells
  cellular uptake efficiency: significant cellular uptake efficiency
HeLa cells [3]; HeLa cells (Supplementary Fig. S1A)
  cellular uptake compared with the fully cationic R9 peptide: much lower cellular uptake
HeLa cells [3]; HeLa cells, flow cytometry (Fig. 2C)
  uptake efficiency compared with TAT: delivered into the cells better than TAT
HeLa cells [4]; 50 μg/mL heparin sulfate 30 min pre-treatment, then AA3H 4 h, relative to delivery without heparin, average of three
  decrease of intracellular delivery after heparin sulfate: 45%
HeLa cells [4]; 4 °C for 2 h vs 37 °C control, flow cytometry
  cellular uptake at 4 °C lower than at 37 °C: approximately 66%
HeLa cells [4]; 30-min pre-treatment, 30 μg dynasore, AA3H 1 μM
  decrease of uptake with dynasore: 57%
HeLa cells [4]; 30-min pre-treatment, 50 μM CPZ, AA3H 1 μM, serum-containing medium
  decrease in uptake with chlorpromazine (CPZ): 23.5%
HeLa cells [4]; 30-min pre-treatment, 50 μM EIPA, AA3H 1 μM
  effect of EIPA (macropinocytosis inhibitor) on peptide delivery: significant inhibition of peptide delivery
HeLa cells [4]; 30-min pre-treatment, 100 μM CQ, AA3H 1 μM, ascribed to dequenching of fluorescein, not to uptake
  increase in mean fluorescence intensity with chloroquine (CQ): 20.5%
HeLa cells [4]; 30-min pre-treatment, 1 mM MβCD, AA3H 1 μM
  reduction of uptake with methyl-β-cyclodextrin (MβCD): 32%
HeLa cells [4]; 30-min pre-treatment, AA3H 1 μM
  reduction of uptake with nystatin (NYS): 15%
HeLa cells [5]
  subcellular localization: localized in the cytoplasm but not in the nucleus
Cells [6]
  t0.5 (half-time of internalization): ~ 2 h

## {FITC}-MAWWKSWIEQ [AA8H, FITC-labeled N-terminus peptide of an annexin A isoform]
HeLa cells [3]; HeLa cells, flow cytometry
  order of potency in intracellular translocation (dose-dependent uptake): AA3H > AA5H > AA8H > AA13H > AA4H
HeLa cells [3]; HeLa cells
  cellular uptake efficiency: significant cellular uptake efficiency

## {FITC}-MATKGGTVKA [AA4H, FITC-labeled N-terminus peptide of an annexin A isoform]
HeLa cells [3]; HeLa cells, flow cytometry
  order of potency in intracellular translocation (dose-dependent uptake): AA3H > AA5H > AA8H > AA13H > AA4H
HeLa cells [3]; HeLa cells
  cellular uptake efficiency: significant cellular uptake efficiency

## FITC-YGRKKRRQRRR [TAT47-58, widely used conventional CPP, TAT peptide of human immunodeficiency virus, FITC-labeled, reference compound]
Cells [7]
  t0.5 (half-time of internalization): 1 min
HeLa cells [2]
  delivery efficiency in the presence of serum: significantly lowered efficiency

## {FITC}-MAQVLRGTVT [AA5H, FITC-labeled N-terminus peptide of an annexin A isoform]
HeLa cells [3]; HeLa cells, flow cytometry
  order of potency in intracellular translocation (dose-dependent uptake): AA3H > AA5H > AA8H > AA13H > AA4H
HeLa cells [3]; HeLa cells
  cellular uptake efficiency: significant cellular uptake efficiency

## {FITC}-RRRQQQQQQRRR [PLP, protein linking peptide containing multiple arginine residues, FITC-labeled]
HeLa cells [3]; flow cytometry, fluorescence label of the peptide (Fig. 8B)
  cellular uptake of PLP-conjugated CPPs: not as high as with AA3H conjugation

## {FITC}-MGNRHAKASS [AA13H, FITC-labeled N-terminus peptide of an annexin A isoform]
HeLa cells [3]; HeLa cells, flow cytometry
  order of potency in intracellular translocation (dose-dependent uptake): AA3H > AA5H > AA8H > AA13H > AA4H
HeLa cells [3]; HeLa cells
  cellular uptake efficiency: significant cellular uptake efficiency

## lipopolysaccharide [LPS]
Raw 264.7 cells
  IL-6 released into the culture medium: 373 pg/mL
